Here are results for 10 compounds from ChEMBL document CHEMBL1681728, “An automated, polymer-assisted strategy for the preparation of urea and thiourea derivatives of 15-membered azalides as potential antimalarial chemotherapeutics” (Bioorg Med Chem, 2011).

What all share (format): functional, organism-based
Assay [1] concerns Plasmodium falciparum. Description: Antimalarial activity against chloroquine-,pyrimethamine-resistant Plasmodium falciparum W2 assessed as inhibition of [3H]hypoxanthine incorporation after 96 hrs by microtiter plate scintillation counting.
Assay [2] has as its system Plasmodium falciparum. The experiment in a line: Antimalarial activity against multidrug-resistant Plasmodium falciparum TM91C235 assessed as inhibition of [3H]hypoxanthine incorporation after 96 hrs by microtiter plate scintillation counting.
For assay [3], the system named is Plasmodium falciparum. The experiment in a line: Antimalarial activity against chloroquine-sensitive Plasmodium falciparum D6 assessed as inhibition of [3H]hypoxanthine incorporation after 96 hrs by microtiter plate scintillation counting.

By IC50 is commonly meant the point on the concentration scale where inhibition reaches its midpoint. Turning to `CC[C@H]1OC(=O)[C@H](C)[C@@H](O[C@H]2C[C@@](C)(OC)[C@@H](O)[C@H](C)O2)[C@H](C)[C@@H](O[C@@H]2O[C@H](C)C[C@H](N(C)C)[C@H]2O)[C@](C)(O)C[C@@H](C)CN(CCCNC(=O)NC2CCCC2)[C@H](C)[C@@H](O)[C@]1(C)O`, the IC50 stood at 0.277 µM in the assay with Plasmodium falciparum [1], 0.616 µM in the assay with Plasmodium falciparum [2] and 6.02 µM in the assay on Plasmodium falciparum [3].

As to `CC[C@H]1OC(=O)[C@H](C)[C@@H](O[C@H]2C[C@@](C)(OC)[C@@H](O)[C@H](C)O2)[C@H](C)[C@@H](O[C@@H]2O[C@H](C)C[C@H](N(C)C)[C@H]2O)[C@](C)(O)C[C@@H](C)CN(CCCNC(=O)NC(C)(C)C)[C@H](C)[C@@H](O)[C@]1(C)O`, the IC50 is 0.411 µM in the assay on Plasmodium falciparum [1], 0.8 µM with Plasmodium falciparum [2] and 5.51 µM with Plasmodium falciparum [3].

In the case of `CC[C@H]1OC(=O)[C@H](C)[C@@H](O[C@H]2C[C@@](C)(OC)[C@@H](O)[C@H](C)O2)[C@H](C)[C@@H](O[C@@H]2O[C@H](C)C[C@H](N(C)C)[C@H]2O)[C@](C)(O)C[C@@H](C)CN(CCCNC(=S)Nc2cccnc2)[C@H](C)[C@@H](O)[C@]1(C)O`, the IC50 amounted to 1.2 µM in the assay with Plasmodium falciparum [1], 0.801 µM in the assay with Plasmodium falciparum [2] and 1.21 µM with Plasmodium falciparum [3].

On to `CCCCNC(=O)NCCCN1C[C@H](C)C[C@@](C)(O)[C@H](O[C@@H]2O[C@H](C)C[C@H](N(C)C)[C@H]2O)[C@@H](C)[C@H](O[C@H]2C[C@@](C)(OC)[C@@H](O)[C@H](C)O2)[C@@H](C)C(=O)O[C@H](CC)[C@@](C)(O)[C@H](O)[C@H]1C`, for which the IC50 turned out to be 0.37 µM in the assay on Plasmodium falciparum [1], 0.82 µM in the assay with Plasmodium falciparum [2] and 5.8 µM in the assay with Plasmodium falciparum [3].

With `CC[C@H]1OC(=O)[C@H](C)[C@@H](O[C@H]2C[C@@](C)(OC)[C@@H](O)[C@H](C)O2)[C@H](C)[C@@H](O[C@@H]2O[C@H](C)C[C@H](N(C)C)[C@H]2O)[C@](C)(O)C[C@@H](C)CN(CCCNC(=O)Nc2ccc3c(c2)CCO3)[C@H](C)[C@@H](O)[C@]1(C)O`, the IC50 in the assay on Plasmodium falciparum [1] turned out to be 1.59 µM; with Plasmodium falciparum [2], 0.923 µM; in the assay on Plasmodium falciparum [3] it was 2.05 µM.

Regarding `CC[C@H]1OC(=O)[C@H](C)[C@@H](O[C@H]2C[C@@](C)(OC)[C@@H](O)[C@H](C)O2)[C@H](C)[C@@H](O[C@@H]2O[C@H](C)C[C@H](N(C)C)[C@H]2O)[C@](C)(O)C[C@@H](C)CN(CCCNC(=S)NC2CC2)[C@H](C)[C@@H](O)[C@]1(C)O`, the IC50 in the assay on Plasmodium falciparum [1] was 0.679 µM; in the assay with Plasmodium falciparum [2] it was 0.972 µM; with Plasmodium falciparum [3] it was 3.72 µM.

Consider `CCC(C)NC(=O)NCCCN1C[C@H](C)C[C@@](C)(O)[C@H](O[C@@H]2O[C@H](C)C[C@H](N(C)C)[C@H]2O)[C@@H](C)[C@H](O[C@H]2C[C@@](C)(OC)[C@@H](O)[C@H](C)O2)[C@@H](C)C(=O)O[C@H](CC)[C@@](C)(O)[C@H](O)[C@H]1C` (stereo not given in full), for which the IC50 in the assay on Plasmodium falciparum [1] amounted to 0.489 µM; with Plasmodium falciparum [2], 1.18 µM; in the assay on Plasmodium falciparum [3], 14 µM.

In the case of `CC[C@H]1OC(=O)[C@H](C)[C@@H](O[C@H]2C[C@@](C)(OC)[C@@H](O)[C@H](C)O2)[C@H](C)[C@@H](O[C@@H]2O[C@H](C)C[C@H](N(C)C)[C@H]2O)[C@](C)(O)C[C@@H](C)CN(CCCNC(=S)Nc2ccc(N3CCOCC3)nc2)[C@H](C)[C@@H](O)[C@]1(C)O`, the IC50 in the assay on Plasmodium falciparum [1] is 1.96 µM; with Plasmodium falciparum [2] it was 1.57 µM; in the assay with Plasmodium falciparum [3], 2.84 µM.

As to `CCNC(=O)NCCCN1C[C@H](C)C[C@@](C)(O)[C@H](O[C@@H]2O[C@H](C)C[C@H](N(C)C)[C@H]2O)[C@@H](C)[C@H](O[C@H]2C[C@@](C)(OC)[C@@H](O)[C@H](C)O2)[C@@H](C)C(=O)O[C@H](CC)[C@@](C)(O)[C@H](O)[C@H]1C`, the values for the IC50 in the assay with Plasmodium falciparum [1], in the assay with Plasmodium falciparum [2] and in the assay on Plasmodium falciparum [3] were 13.7 µM, 1.98 µM and 13.7 µM, respectively.

`CC[C@H]1OC(=O)[C@H](C)[C@@H](O[C@H]2C[C@@](C)(OC)[C@@H](O)[C@H](C)O2)[C@H](C)[C@@H](O[C@@H]2O[C@H](C)C[C@H](N(C)C)[C@H]2O)[C@](C)(O)C[C@@H](C)CN(CCCNC(=S)NCCN2CCCCC2)[C@H](C)[C@@H](O)[C@]1(C)O`: the IC50 with Plasmodium falciparum [1] stood at 3.3 µM; in the assay with Plasmodium falciparum [2] it was 3.03 µM; with Plasmodium falciparum [3], 9.29 µM.
